Source: US4340725A (priority 1979, dated 1982)
Values after ≈ are worked out from the molar mass of the structure shown.

Experiments:
[1] = test system: Ehrlich ascites carcinoma; experiment: Effect on Ehrlich ascites carcinoma; type: in vivo, ddY-strain mice; settings: for LTS: ≥60 days
Experimental: Five male ddY-strain mice having a weight of about 20 g are used for each group as test animals; and 5×10^6 cells of Ehrlich ascites carcinoma are implanted in the animals intraperitoneally. After 24 hours following implantation or once a day for five days from 24 hours after implantation, 0.2 ml PBS suspension containing DC-38-V in various concentrations is administered intraperitoneally.
For comparison, mitomycin C is used as test compound.

[2] = acute toxicity; settings: mouse, in vivo, ip; mice, intraperitoneally
Experimental: The acute toxicity (LD50) of DC-38-V is >1000 mg/kg when the test compound is administered intraperitoneally to mice.

[3] = test system: Sarcoma 180 solid tumor; experiment: Effect on sarcoma 180 solid tumor; type: in vivo, ddY-strain mice; settings: 7 days after implantation
Experimental: Six male ddY-strain mice having a weight of about 20 g are used for each group as test animals; and 5×10^6 cells of Sarcoma 180 ascites tumor are implanted subcutaneously in the animals. After 24 hours following implantation, 0.2 ml phosphate buffered saline (PBS) containing DC-38-V in various concentrations is administered intraperitoneally.
Then the suspension is diluted with PBS to obtain suspensions having various concentrations of test compound.
As a control, PBS solution containing Tween 80 is used. The test animals are not affected by the control solution. PBS comprises 0.8 g/dl NaCl, 0.02 g/dl KCl, […] Na2 HPO4, and 0.02 g/dl KH2 PO4 (pH 7.2).
(§1) For comparison, 0.2 ml PBS solution containing mitomycin C is administered to a group of animals intraperitoneally at the same time as the test compound.
Seven days after implantation, the average tumor volume (mm^3) and T/C (T: average tumor volume of the group treated with the test compound, C: that of control) are determined.

[4] = Solubility of DC-38-V; type: physicochemical
[5] = Stability (solid; acidic, neutral, alkaline liquid; sun light or shielding); type: physicochemical
Source text: The stability of compound is illustrated in Table 1.

[6] = test system: Shigella sonnei ATCC 9290; experiment: in vitro antibacterial spectra, agar dilution method (pH 7.0); type: cell-based; settings: ATCC9290, read-out: Minimum Inhibitory Concentration (MIC)
Source text: (§2) The in vitro antibacterial spectra of DC-38-V determined by the agar dilution method (pH 7.0) is illustrated in the following Table 7.

[7] = test system: Staphylococcus aureus ATCC 6538 P; experiment: as above; type: cell-based; settings: ATCC6538, read-out: Minimum Inhibitory Concentration (MIC)
Source text: as §2

[8] = test system: Escherichia coli ATCC 26; experiment: as above; type: cell-based; settings: ATCC26, read-out: Minimum Inhibitory Concentration (MIC)
Source text: as §2

[9] = test system: Bacillus subtilis No. 10707; experiment: as above; type: cell-based; settings: read-out: Minimum Inhibitory Concentration (MIC)
Source text: as §2

[10] = test system: Klebsiella pneumoniae ATCC 10031; experiment: as above; type: cell-based; settings: ATCC10031, read-out: Minimum Inhibitory Concentration (MIC)
Source text: as §2

[11] = test system: Salmonella typhosa ATCC 9992; experiment: as above; type: cell-based; settings: Salmonella enterica, read-out: Minimum Inhibitory Concentration (MIC)
Source text: as §2

[12] = test system: Lymphocytic leukemia P-388 tumor; experiment: Effect on Lymphocytic leukemia P-388 tumor; type: in vivo, CDF1 mice
Experimental: Five male CDF1 mice having a weight of about 22 g are used for each group as test animals; and 1×10^6 cells of Lymphocytic leukemia P-388 tumor are implanted intraperitoneally in the test animals. Twenty-four hours following implantation, 0.2 ml PBS solution containing DC-38-V in various concentrations is administered intraperitoneally.
For comparison, 0.2 ml PBS solution containing mitomycin C is administered to a group of test animals intraperitoneally at the same time as the test compound.

[13] = test system: MH 134 ascites tumor; experiment: Effect on MH 134 ascites tumor; type: in vivo, C3H-strain mice; settings: for Long term survivors (LTS): ≥40 days
Experimental: Six male C3H-strain mice having a weight of about 20 g are used for each group as test animals; and 5×10^6 cells of MH 134 ascites tumor are implanted in the animals intraperitoneally. After 24 hours following implantation, 0.2 ml PBS suspension containing DC-38-V in various concentrations is administered intraperitoneally.
as §1

[14] = 25 × 5 mg/kg i.p., once a day for five days
[15] = 50 × 5 mg/kg i.p., once a day for five days
[16] = 100 × 5 mg/kg i.p., once a day for five days

## C=Cc1cc(OC)c2c(c1)c(=O)oc1c2cc(OC)c2c(O)ccc(C3OC(C(C)O)C(O)C3O)c21 (stereo not shown) [DC-38-V]
[1]; [14]
  ILS: > 315%
  MST: > 49.8 days
  LTS: 3/5
[1]; 50 × 1 mg/kg i.p.
  ILS: 114%
  MST: 17.4 days
  LTS: 0/5
[1]; [15]
  ILS: > 358%
  MST: > 56.6 days
  LTS: 4/5
[1]; 100 × 1 mg/kg i.p.
  ILS: > 202%
  MST: > 30.6 days
  LTS: 1/5
[1]; [16]
  ILS: > 380%
  MST: > 60 days
  LTS: 5/5
[1]; 200 × 1 mg/kg i.p.
  ILS: > 264%
  MST: > 40.2 days
  LTS: 2/5
[1]; 400 × 1 mg/kg i.p.
  ILS: > 275%
  MST: > 41.8 days
  LTS: 2/5
[2]
  LD50: > 1000 mg/kg
[3]; 100 mg/kg i.p.
  T/C (average tumor volume): 0.76
  average tumor volume (V): 1,085 mm^3
[3]; 200 mg/kg i.p.
  T/C (average tumor volume): 0.62
  average tumor volume (V): 874 mm^3
[3]; 400 mg/kg i.p.
  T/C (average tumor volume): 0.40
  average tumor volume (V): 562 mm^3
[4]; acetone
  Solubility: slightly soluble
[4]; benzene
  Solubility: slightly soluble
[4]; chloroform
  Solubility: slightly soluble
[4]; dimethylformamide
  Solubility: soluble
[4]; dimethylsulfoxide
  Solubility: soluble
[4]; ether
  Solubility: almost insoluble
[4]; ethyl acetate
  Solubility: slightly soluble
[4]; methanol
  Solubility: slightly soluble
[4]; petroleum ether
  Solubility: almost insoluble
[4]; pyridine
  Solubility: soluble
[4]; tetrahydrofuran
  Solubility: soluble
[4]; water
  Solubility: almost insoluble
[5]; Liquid acidic, shielding
  Stability: stable
[5]; Liquid alkaline, shielding
  Stability: unstable
[5]; Liquid alkaline, sun light
  Stability: unstable
[5]; Liquid neutral, shielding
  Stability: stable
[5]; Solid, shielding
  Stability: stable
[5]; Solid, sun light
  Stability: unstable
[6]
  MIC: > 75 µg/mL
[7]
  MIC: 0.0375 µg/mL (≈ 0.0758 µM)
[8]
  MIC: 18.8 µg/mL (≈ 37.9 µM)
[9]
  MIC: 0.0375 µg/mL (≈ 0.0758 µM)
[10]
  MIC: > 75 µg/mL
[11]
  MIC: > 75 µg/mL
[12]; 50 mg/kg i.p.
  increased life span (ILS): 138%
  mean survival time (MST): 13.4 days
[12]; 100 mg/kg i.p.
  increased life span (ILS): 141%
  mean survival time (MST): 14.5 days
[12]; 200 mg/kg i.p.
  increased life span (ILS): 155%
  mean survival time (MST): 16.0 days
[12]; 400 mg/kg i.p.
  increased life span (ILS): 162%
  mean survival time (MST): 16.7 days
[13]; 100 mg/kg i.p.
  ILS: > 184%
  MST: > 31.5 days
  Long term survivors (LTS): 3/6
[13]; 200 mg/kg i.p.
  ILS: > 310%
  MST: > 53.0 days
  Long term survivors (LTS): 6/6
[13]; 400 mg/kg i.p.
  ILS: > 231%
  MST: > 39.5 days
  Long term survivors (LTS): 2/6

## CO[C@@]12[C@H](COC(N)=O)C3=C(C(=O)C(C)=C(N)C3=O)N1C[C@@H]1N[C@@H]12 [Mitomycin C, mitomycin C, reference compound]
[1]; 2.1 × 1 mg/kg
  ILS: 122%
  MST: 18.6 days
  LTS: 0/5
[1]; 4.2 × 1 mg/kg
  ILS: > 203%
  MST: > 30.8 days
  LTS: 1/5
[1]; 5.6 × 1 mg/kg
  ILS: 122%
  MST: 18.6 days
  LTS: 0/5
[3]; 4.2 mg/kg i.p.
  T/C (average tumor volume): 0.37
  average tumor volume (V): 529 mm^3
[12]; 4.2 mg/kg i.p.
  increased life span (ILS): 160%
  mean survival time (MST): 16.5 days
[13]; 1.05 mg/kg i.p.
  ILS: 106%
  MST: 18.1 days
  Long term survivors (LTS): 0/6
[13]; 2.1 mg/kg i.p.
  ILS: 116%
  MST: 19.8 days
  Long term survivors (LTS): 0/6
[13]; 4.2 mg/kg i.p.
  ILS: 120%
  MST: 20.5 days
  Long term survivors (LTS): 0/6
[13]; 8.4 mg/kg i.p.
  ILS: 55%
  MST: 9.4 days
  Long term survivors (LTS): 0/6
